Data: patent publication US10118891B2, “Organosulfur compounds for the prevention and treatment of neurodegenerative diseases” (Allium Vitalis, Inc., priority 2011, dated 2018)
≈ marks a conversion by molar mass, not a printed value.

Experiments:
[1] = test system: protein carbonyls in synaptosomal membranes; settings: cited from earlier work
[2] = test system: Ehrilich ascites tumor cells; settings: intracellular concentrations up to 0.6 mM; cited from earlier work
[3] = cited from earlier work
[4] = experimental self-consumption by the applicant, tolerability; assay type: in vivo, human; settings: 240 mg/day for several weeks
ischemia = ischemia with elevation of HNE; cited from earlier work
[5] = oil and water system; cited from earlier work
[6] = partition coefficient (Log P), oil and water system; assay type: physicochemical; settings: worked out from Log P
Text: Lipophilic molecule: Attracted to lipids. A molecule is lipophilic if it preferentially partitions into the oily side of an oil and water system.

[7] = test system: glutathione content of cells; settings: daily dosage of 1000 mg, multiple myeloma patients, with arsenic trioxide; cited from earlier work

For `CCOC(=O)CNC(=O)[C@H](CS)NC(=O)CC[C@H](N)C(=O)O` [GEE, Glutathione Ethyl Ester], the “protein carbonyls, % of Control” value ([1]; GEE alone, no acrolein) is given as 85% and the “protein carbonyls, "GEE+Acrolein" bar” value ([1]; synaptosomal membranes pretreated with GEE (3 hours), then acrolein) is given as 163 % of "Control".
In the case of `CC(O)C=CC=O` (stereo not drawn) [HPE], the “effect on protein sulfhydryls or enzyme activities” value [2] is listed as “no effect” and the “low molecular weight thiols” value [2] is listed as “depleted”.
For `C=CCS` [allyl mercaptan, AllylThiol], the solubility in water [3] is given as 5000 µg/mL (≈ 67.4 mM), the “negative effects on consumption” value [4] is given as “without any apparent negative effects” and the “standard comprehensive blood test at the end of the experiment” value [4] is given as “essentially normal”.
For `CC1=NN(c2ccccc2)C(=O)C1` [edaravone], the “effect of treatment in ischemia” value (ischemia) is given as “protective effect”.
In the case of `CCCS` [propyl mercaptan, 1-PropaneThiol], the “partition coefficient (Log P)” value [5] is given as 1.95 and the “ratio of concentration on the oily side to the aqueous side” value [6] is given as about 100.
For `O=C1O[C@H]([C@@H](O)CO)C(O)=C1O` [vitamin C], the “glutathione depletion, mean percentage decrease” value [7] is listed as 60%.
In the case of Acrolein, the “protein carbonyls, "C+Acrolein" bar” value ([1]; synaptosomal membranes, acrolein without GEE pretreatment) is listed as 552 % of "Control".
